We go through two compounds from article PMC12643354, “From Oxygen to Tellurium: The Impact of the Chalcogen on Nucleophilicities and Basicities of Isochalcogenourea Catalysts” (Angewandte Chemie (International Ed. in English), 2025).

Marks after values point to notes of the source that are not given here.

Series [1] can be described thus: Kinetics of IChU reactions with reference electrophile (ind)2CH+ (stopped-flow photometry). The class given is physicochemical. The settings on record: E = −8.76, dichloromethane, 20 °C. The text has this: (§1) In order to systematically investigate the influence of the chalcogen atom on the nucleophilicity of DHPB‐derived IChUs (Ch = O, S, Se, and Te), we utilized Mayr's benzhydrylium methodology.^[ [107] ^]
(§2) In accordance with observations in previous studies on ITU reactivity,^[ [119] ^] mixing the strongly colored benzhydrylium tetrafluoroborates 18 with excess IChUs in dichloromethane gave rise to decolorization of the solutions due to the formation of isochalcogenouronium tetrafluoroborates 19, which are colourless (Figure 3a). Owing to reversibility of the C─N bond formation, generated adducts 19 from the IChU/benzhydrylium reactions were not isolated but characterized by ^1H, ^13C, and ^77Se NMR spectroscopy (the ^77Se nucleus is remarkably sensitive with observed changes of around 100 ppm when comparing the ^77Se resonances of free ISeUs with those of the corresponding selenouronium tetrafluoroborates^[ [95] ^]). The kinetics of the IChU reactions with the reference electrophiles 18 were traced by photometric methods using standard stopped‐flow techniques. To establish pseudo first‐order conditions and to secure a sufficient decay of the benzhydrylium's absorbance during the course of the reactions, the IChUs were employed at higher concentrations than the benzhydrylium ions. First‐order rate constants k obs (s^−1) were determined by fitting the mono‐exponential decay function in Equation (2) to the decreasing absorbance (A) of 18 during their reaction with the IChUs as exemplified for the reaction of ITeU3 with (ind)2CH^+ in Figure 3b. (2) A=A0e^−kobst+C […]
(§3) First‐order rate constants k obs correlated linearly with the IChU concentration. Therefore, second‐order rate constants k 2 (L mol^−1 s^−1) were determined from the slope of the linear regression curves (Figure 3c ^[ [95] ^]). Second‐order rate constants k 2 for all kinetically investigated reactions of DHPB‐derived IChUs (Ch = O, S, Se, and Te) with benzhydrylium ions 18 are gathered in Table 1.
(§4) Apart from CH2Cl2 also MeCN and THF are solvents that are commonly employed in reactions involving isochalcogenoureas. […]

Series [2] is described as follows: Kinetics of IChU reactions with reference electrophile (dma)2CH+ (stopped-flow photometry). To be noted: E = −7.02, dichloromethane, 20 °C. The class given is physicochemical.
Source text: as §1, §2, §3, §4

The conditions of series [3]: in methanolic aqueous solution (1:5-mixture); cited from earlier work.
Series [4] in a line: Kinetics of IChU reactions with reference electrophile (pyr)2CH+ (stopped-flow photometry). To be noted: E = −7.69, dichloromethane, 20 °C. It is filed as physicochemical.
Source text: as §1, §2, §3, §4

Series [5] can be described thus: Mayr nucleophilicity parameters N and sN (benzhydrylium methodology, Mayr-Patz equation). To be noted: dichloromethane, 20 °C. The class given is physicochemical.
Source text: (1) Mayr-Patz Equation: lgk20^∘C=sN(N+E)
The MPE is a linear‐free‐energy relationship that characterizes electrophiles by the electrophilicity parameter E and nucleophiles by the solvent‐dependent parameters N (nucleophilicity) and s N (sensitivity toward changes in the electrophile reactivity). By using the MPE (Equation (1)), the construction of comprehensive nucleophilicity and electrophilicity scales becomes possible, which facilitate the comparison of various classes of Lewis base organocatalysts.^[ [110], [111], [112], [113], [114], [115], [116], [117], [118], [119], [120] ^]
as §1
Figure 4 illustrates the linear correlations of the second‐order rate constants (lg k 2) with the electrophilicities E of Ar2CH^+ (18), which makes it possible to determine the Mayr nucleophilicity parameters N (and s N) for the DHPB‐derived IChUs IU3, ITU3, ISeU3, and ITeU3. […]
Figure 4 Linear correlations of second‐order rate constants (lg k 2) for the reactions of IU3, ITU3, ISeU3, and ITeU3 with Ar2CH^+ 18 (in dichloromethane at 20 °C) with the electrophilicities E of 18. The slopes of the linear correlations equal the nucleophile‐dependent sensitivity parameter s N. Intercepts on the abscissa reflect the nucleophilicity parameter N (N = –E at lg k 2 = 0).

Series [6] can be described thus: Brønsted basicity pKaH by chemical shift imaging NMR method in DMSO and MeCN. To be noted: for Brønsted basicity pKaH(DMSO): in DMSO; for Brønsted basicity pKaH(MeCN): in MeCN. The method, then:
Recently, Wiskur's group reported potentiometrically determined pK aH values (that is, the pK a of the conjugate acids) of achiral ITUs based on the BTM and DHPB scaffolds in aqueous media.^[ [89], [128] ^] […] In this work, we applied this NMR spectroscopic method to determine the pK aH values of further IChUs in DMSO and MeCN (Supporting Information).
First, a stock solution containing the analyte, two basic indicators and tetramethyl silane was prepared with the respective solvent (DMSO or acetonitrile).
Then 5-10 mg of acid were weighed into a NMR tube and subsequently covered with glass beads.
Figure S50: 5-10 mg of acid in Figure S51: Cover with 1 mm
Afterwards, 550 μL of the stock solution was layered carefully over the glass beads and the acid. The sample is then put in a 28 °C water bath (for DMSO) for 20 - 24h or left on the bench at 22 °C (for acetonitrile) for 1.5 - 2 h and then the NMR measurement was carried out at 20 °C.
Figure S52: Overlay the acid with the Figure S54: Visualized gradient after stock solution of two indicators and the 18h in DMSO (with Bromthymolblue) […]
Figure S53: Development of gradients in temperated water S145 […]
13.4 Indicator and Acid Data
Table S67: Limiting shifts (δH for the fully protonated and δL for the free base), pKas and abbreviations of indicators and acids in acetonitrile.
Table S68: Limiting shifts (δH for the fully protonated and δL for the free base), pKas and abbreviations of indicators

Turning to `c1ccc2c(c1)[Se]C1=NCCCN12` [ISeU3, SeDHPB], the “Second-order rate constant k2 exptl” value in series [1] turned out to be 18100 M⁻¹ s⁻¹. Further, the “Second-order rate constant k2 exptl” value in series [2] amounted to 194000 M⁻¹ s⁻¹. Besides, the “Brønsted basicity pKaH(H2O)” value in series [3] is >11 ^c). Further, the “Second-order rate constant k2 exptl” value in series [4] was determined as 107000 M⁻¹ s⁻¹. Further, in series [5], the “Nucleophile-specific sensitivity parameter sN” value amounted to 0.66 and the “Nucleophilicity parameter N” value came out at 15.16. In addition, in series [6], the “Brønsted basicity pKaH(DMSO)” value came out at 8.3 and the “Brønsted basicity pKaH(MeCN)” value is recorded as 17.9.

As to `c1ccc2c(c1)OC1=NCCCN12` [IU3, ODHPB], the “Second-order rate constant k2 exptl” value in series [1] stood at 1200 M⁻¹ s⁻¹. Besides, the “Second-order rate constant k2 exptl” value in series [2] worked out at 27900 M⁻¹ s⁻¹. Besides, in series [3], the “Brønsted basicity pKaH(H2O)” value is listed as 8.8 ^c). For the same compound, the “Second-order rate constant k2 exptl” value in series [4] stood at 7930 M⁻¹ s⁻¹. In series [5], the “Nucleophile-specific sensitivity parameter sN” value amounted to 0.69 and the “Nucleophilicity parameter N” value was determined as 13.31. In series [6], the “Brønsted basicity pKaH(DMSO)” value turned out to be 6.5 and the “Brønsted basicity pKaH(MeCN)” value was 16.9.
